Values of other authors in US8759032B2, “Genetically engineered strain WSJ-IA for producing isovaleryl spiramycin I” (Shen Yang Tonglian Group Co., Ltd., priority 2010, dated 2014).

conditions: single components; no significant differences in their activities; patent application 201010119745.1

Molecule | antibiotic activities
CCC(=O)O[C@@H]1CC(=O)O[C@H](C)C/C=C/C=C/[C@H](O[C@H]2CC[C@H](N(C)C)[C@@H](C)O2)[C@H](C)C[C@H](CC=O)[C@H](O[C@@H]2O[C@H](C)[C@@H](O[C@H]3C[C@@](C)(O)[C@@H](OC(=O)CC(C)C)[C@H](C)O3)[C@H](N(C)C)[C@H]2O)[C@H]1OC [Isovaleryl spiramycin III] | all have antibiotic activities
CO[C@@H]1[C@@H](O[C@@H]2O[C@H](C)[C@@H](O[C@H]3C[C@@](C)(O)[C@@H](OC(=O)CC(C)C)[C@H](C)O3)[C@H](N(C)C)[C@H]2O)[C@@H](CC=O)C[C@@H](C)[C@@H](O[C@H]2CC[C@H](N(C)C)[C@@H](C)O2)/C=C/C=C/C[C@@H](C)OC(=O)C[C@H]1O [Isovaleryl spiramycin I] | all have antibiotic activities
Isovaleryl spiramycin II | all have antibiotic activities
